One assay has as its target IMP-1 (Serratia marcescens, UniProt P52699). Description: Enzyme activity: determination of IC50, fluorescence assay with CCF2-FA substrate. In kind it is biochemical. The settings on record: enzyme 2 pM, CCF2-FA 1.25 μM, 2 hours at 25° C.; read-out: IMP1 IC50. In short, it runs like this:
(§1)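 In pH 7 phosphate buffer (100 mM) with 10 μM ZnSO4 and 0.005% Tween-20, CCF2-FA substrate (1.25 μM final) was hydrolysed for 2 h at 25 °C by NDM-1, IMP-1 or VIM-1 at 1, 2 or 30 pM in the presence of inhibitor at 20–0.00063 μM. Emission 460 nm/excitation 405 nm; 4-parameter curve fit gave IC50.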

The next assay deals with NDM-1 (Klebsiella pneumoniae, UniProt C7C422). Described as above. The settings on record: enzyme 1 pM, CCF2-FA 1.25 μM, 2 hours at 25° C.; read-out: NDM1 IC50. The format is biochemical. In short, it runs like this:
as §1

In a further assay the target is VIM-1 (Pseudomonas aeruginosa, UniProt A0A0F7KYQ8). Described as above. In kind it is biochemical. The settings on record: enzyme 30 pM, CCF2-FA 1.25 μM, 2 hours at 25° C.; read-out: VIM1 IC50. In short, it runs like this: as §1
The test system of assay [1] is Escherichia coli expressing NDM-1 (CLB30016). Description: Antibiotic potentiation activity: synergistic concentration (MITC95) with imipenem, growth by OD600. The format is cell-based. The following applies: 95% inhibition of bacterial growth, strain CLB30016. The gist of the method:
(§2)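 MITC95 = lowest inhibitor concentration giving 95% growth inhibition, read by absorbance after 22–24 h at 35° C. Compound range 200 μM to 0.195 μM, imipenem fixed at 1 or 4 μg/ml, bacteria in 1.1×CAMHB from saline suspension diluted 1:100.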

In assay [2] the test system is Klebsiella pneumoniae expressing VIM-1 (IHMA599644). Described as above. The format is cell-based. The following applies: 95% inhibition of bacterial growth, strain IHMA599644. In short, it runs like this: as §2
The subject of assay [3] is Serratia marcescens expressing IMP-1 (CL5741). Described as above. The format is cell-based. The following applies: 95% inhibition of bacterial growth, strain CL5741. The gist of the method: as §2

The structures appear in SMILES notation. pIC50: −log10 of the molar value. A value given as a limit tells only on which side of the number the result lay.

Chain of IMP-1 (P52699 19-246, looked up, species assumed): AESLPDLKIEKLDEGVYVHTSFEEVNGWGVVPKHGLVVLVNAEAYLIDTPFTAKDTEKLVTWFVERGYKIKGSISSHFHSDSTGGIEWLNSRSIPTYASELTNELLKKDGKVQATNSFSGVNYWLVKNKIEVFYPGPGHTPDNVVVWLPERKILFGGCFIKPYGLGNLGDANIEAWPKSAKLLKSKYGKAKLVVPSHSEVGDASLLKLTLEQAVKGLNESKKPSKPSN
Chain of NDM-1 (C7C422 29-270, looked up, species assumed): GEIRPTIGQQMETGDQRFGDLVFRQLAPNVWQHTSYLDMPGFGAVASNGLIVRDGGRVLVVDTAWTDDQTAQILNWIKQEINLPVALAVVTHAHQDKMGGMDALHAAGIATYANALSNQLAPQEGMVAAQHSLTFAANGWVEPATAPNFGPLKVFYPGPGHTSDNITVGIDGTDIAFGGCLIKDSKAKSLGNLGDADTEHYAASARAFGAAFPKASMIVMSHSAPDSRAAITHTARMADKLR

What is called pIC50 is −log10 of the IC50, conventionally taken in molar units. Turning to `CC(C)C[C@H](C(=O)O)[C@H](Cc1ccc(OCCN)nc1)c1nnn[nH]1` [Example 135, (S)-2-((S)-2-(6-(2-aminoethoxy)pyridin-3-yl)-1-(1H-tetrazol-5-yl)ethyl)-4-methylpentanoic acid], the negative logarithm of the IC50 (pIC50) at IMP-1 is 5.80; on NDM-1, 6.31; on VIM-1, 8.21. The “NDM1 EC30016 MITC95” value in assay [1] was determined as 6.2 µM. Besides, the “VIM1 KP599644 MITC95” value in assay [2] came to 25 µM. In addition, in assay [3], the “IMP1 SM5741 MITC95” value was determined as 25 µM.
Consider `CCC[C@H](C(=O)O)[C@H](Cc1ccc(NCCO)cn1)c1nnn[nH]1` [Example 136, (S)-2-((S)-2-(5-((2-hydroxyethyl)amino)pyridin-2-yl)-1-(1H-tetrazol-5-yl)ethyl)pentanoic acid], for which the negative-log IC50 (pIC50) was 5.17 at IMP-1, 6.47 on NDM-1 and 6.82 at VIM-1. In addition, in assay [1], the “NDM1 EC30016 MITC95” value came to 1.2 µM. In addition, the “VIM1 KP599644 MITC95” value in assay [2] was 18.8 µM. The “IMP1 SM5741 MITC95” value in assay [3] amounted to 100 µM.
As to `CC(C)C[C@H](C(=O)O)[C@H](Cc1cnc(NCCO)s1)c1nnn[nH]1` [Example 137, (S)-2-((S)-2-(2-((2-hydroxyethyl)amino)thiazol-5-yl)-1-(1H-tetrazol-5-yl)ethyl)-4-methylpentanoic acid], the pIC50 at IMP-1 was 6.52; at NDM-1, 6.96; on VIM-1, 8.46. In addition, in assay [1], the “NDM1 EC30016 MITC95” value was determined as 6.2 µM. Besides, the “VIM1 KP599644 MITC95” value in assay [2] is 37 µM. In addition, the “IMP1 SM5741 MITC95” value in assay [3] was 12.5 µM.
For the compound `CC(C)[C@H](C(=O)O)[C@H](Cc1cccc(NCCO)n1)c1nnn[nH]1` [Example 138, (2S,3S)-4-(6-((2-hydroxyethyl)amino)pyridin-2-yl)-2-isopropyl-3-(1H-tetrazol-5-yl)butanoic acid], the pIC50 on IMP-1 is < 4.70; on NDM-1, 6.31; on VIM-1, 6.17. For the same compound, the “NDM1 EC30016 MITC95” value in assay [1] worked out at 3.1 µM. Also, in assay [2], the “VIM1 KP599644 MITC95” value turned out to be 75 µM. Further, the “IMP1 SM5741 MITC95” value in assay [3] is >200 µM.
On to `CC(C)[C@H](C(=O)O)[C@H](Cc1ccc(NCCO)cn1)c1nnn[nH]1` [Example 139, (2S,3S)-4-(5-((2-hydroxyethyl)amino)pyridin-2-yl)-2-isopropyl-3-(1H-tetrazol-5-yl)butanoic acid], for which the negative logarithm of the IC50 (pIC50) on IMP-1 was 5.72; on NDM-1, 7.25; at VIM-1, 7.47. In assay [1], the “NDM1 EC30016 MITC95” value turned out to be 0.39 µM. Besides, the “VIM1 KP599644 MITC95” value in assay [2] turned out to be 12.5 µM. Further, the “IMP1 SM5741 MITC95” value in assay [3] turned out to be 38 µM.
For `CC(C)[C@H](C(=O)O)[C@H](Cc1ccc(NCCN)nc1)c1nnn[nH]1` [Example 140, (2S,3S)-4-(6-((2-aminoethyl)amino)pyridin-3-yl)-2-isopropyl-3-(1H-tetrazol-5-yl)butanoic acid], the negative-log IC50 (pIC50) at IMP-1 is < 4.70; on NDM-1, 6.49; on VIM-1 it was 8.06. For the same compound, in assay [1], the “NDM1 EC30016 MITC95” value came out at 1.6 µM. In addition, the “VIM1 KP599644 MITC95” value in assay [2] was 12.5 µM. The “IMP1 SM5741 MITC95” value in assay [3] turned out to be 75 µM.
For `CC(C)[C@H](C(=O)O)[C@H](Cc1ccc(NC(CO)CO)nc1)c1nnn[nH]1` [Example 141, (2S,3S)-4-(6-((1,3-dihydroxypropan-2-yl)amino)pyridin-3-yl)-2-isopropyl-3-(1H-tetrazol-5-yl)butanoic acid], the pIC50 on IMP-1 is < 4.70; on NDM-1 it was 5.44; on VIM-1, 6.10. Also, the “NDM1 EC30016 MITC95” value in assay [1] came out at 12.5 µM. Besides, the “VIM1 KP599644 MITC95” value in assay [2] turned out to be 150 µM. Besides, the “IMP1 SM5741 MITC95” value in assay [3] was >200 µM.
Take `CC(C)[C@H](C(=O)O)[C@H](Cc1ccc(OCC(N)CO)nc1)c1nnn[nH]1` (stereo partly drawn) [Example 142, (2S,3S)-4-(6-(2-amino-3-hydroxypropoxy)pyridin-3-yl)-2-isopropyl-3-(1H-tetrazol-5-yl)butanoic acid]: the pIC50 on IMP-1 is 5.30; on NDM-1, 6.47; on VIM-1, 6.89. Also, in assay [1], the “NDM1 EC30016 MITC95” value was determined as 3.1 µM. Further, in assay [2], the “VIM1 KP599644 MITC95” value is 25 µM. Further, the “IMP1 SM5741 MITC95” value in assay [3] is 50 µM.
Turning to `CCC[C@H](C(=O)O)[C@H](Cc1ccc(NCc2cc(OC)cc(OC)c2)nc1)c1nnn[nH]1` [Example 144, (S)-2-((S)-2-(6-((3,5-dimethoxybenzyl)amino)pyridin-3-yl)-1-(1H-tetrazol-5-yl)ethyl)pentanoic acid], the negative logarithm of the IC50 (pIC50) is 6.43 on IMP-1, 7.80 on NDM-1 and 7.82 on VIM-1. Also, the “NDM1 EC30016 MITC95” value in assay [1] turned out to be 7.8 µM. For the same compound, the “VIM1 KP599644 MITC95” value in assay [2] was determined as 200 µM. Further, the “IMP1 SM5741 MITC95” value in assay [3] was determined as 62 µM.
For the compound `CC(C)C[C@H](C(=O)O)[C@H](Cc1ccc(N2CCNCC2)c(F)c1)c1nn[nH]n1` [Example 146, (S)-2-((S)-2-(3-fluoro-4-(piperazin-1-yl)phenyl)-1-(2H-tetrazol-5-yl)ethyl)-4-methylpentanoic acid], the negative-log IC50 (pIC50) was 7.00 on IMP-1, 7.44 on NDM-1 and 8.80 at VIM-1. Moreover, the “NDM1 EC30016 MITC95” value in assay [1] is 6.2 µM. Further, the “VIM1 KP599644 MITC95” value in assay [2] worked out at 15.6 µM. Moreover, the “IMP1 SM5741 MITC95” value in assay [3] turned out to be 5.5 µM.
Turning to `CCC[C@H](C(=O)O)[C@H](Cc1ccc2ccc(N)nc2c1)c1nnn[nH]1` [Example 147, (S)-2-((S)-2-(2-aminoquinolin-7-yl)-1-(1H-tetrazol-5-yl)ethyl)pentanoic acid], the negative-log IC50 (pIC50) was 5.35 on IMP-1, 6.96 at NDM-1 and 9.07 on VIM-1. Further, the “NDM1 EC30016 MITC95” value in assay [1] was determined as 3.1 µM. In assay [2], the “VIM1 KP599644 MITC95” value is 6.2 µM. The “IMP1 SM5741 MITC95” value in assay [3] turned out to be 100 µM.
In the case of `CCC[C@H](C(=O)O)[C@H](Cc1ccc2ncc(N)cc2c1)c1nnn[nH]1` [Example 148, 3-amino-6-((2S,3S)-3-carboxy-2-(1H-tetrazol-5-yl)hexyl)quinolin-1-ium], the pIC50 at IMP-1 is 6.40; at NDM-1, 7.60; at VIM-1, 9.03. For the same compound, the “NDM1 EC30016 MITC95” value in assay [1] is 25 µM. In addition, the “VIM1 KP599644 MITC95” value in assay [2] amounted to 25 µM. Besides, the “IMP1 SM5741 MITC95” value in assay [3] was found to be 12.5 µM.
Turning to `CCC[C@H](C(=O)O)[C@H](Cc1ccc(NCCS(N)(=O)=O)cn1)c1nnn[nH]1` [Example 149, 2-((2S,3S)-3-carboxy-2-(1H-tetrazol-5-yl)hexyl)-5-((2-sulfamoylethyl)amino)pyridin-1-ium], the pIC50 at IMP-1 is 5.80; on NDM-1, 6.77; at VIM-1 it was 7.01. In addition, the “NDM1 EC30016 MITC95” value in assay [1] is 0.39 µM. For the same compound, the “VIM1 KP599644 MITC95” value in assay [2] worked out at 18.8 µM. The “IMP1 SM5741 MITC95” value in assay [3] was determined as 38 µM.
Consider `CCC[C@H](C(=O)O)[C@H](Cc1csc(N)n1)c1nnn[nH]1` [Example 150, 4-((2S,3S)-3-carboxy-2-(1H-tetrazol-5-yl)hexyl)thiazol-2-aminium], for which the results for the negative-log IC50 (pIC50) on IMP-1, on NDM-1 and at VIM-1 were < 4.70, 6.32 and 6.52, respectively. Also, the “NDM1 EC30016 MITC95” value in assay [1] was determined as 1.6 µM. Moreover, the “VIM1 KP599644 MITC95” value in assay [2] amounted to 25 µM. Further, the “IMP1 SM5741 MITC95” value in assay [3] was >200 µM.
In the case of `CCC[C@H](C(=O)O)[C@H](Cc1ccc(NC)cn1)c1nnn[nH]1` [Example 151], the negative logarithm of the IC50 (pIC50) was 5.10 at IMP-1, 6.52 on NDM-1 and 6.92 at VIM-1. The “NDM1 EC30016 MITC95” value in assay [1] was 0.39 µM. In addition, the “VIM1 KP599644 MITC95” value in assay [2] came out at 12.5 µM. The “IMP1 SM5741 MITC95” value in assay [3] was 100 µM.
As to `CNc1ccc(C[C@H](c2nnn[nH]2)[C@@H](C(=O)O)C(C)C)cn1` [Example 152, (2S,3S)-2-isopropyl-4-(6-(methylamino)pyridin-3-yl)-3-(1H-tetrazol-5-yl)butanoic acid], the pIC50 at IMP-1 is 5.28; at NDM-1 it was 7.21; on VIM-1, 7.54. Besides, the “NDM1 EC30016 MITC95” value in assay [1] was 0.39 µM. In assay [2], the “VIM1 KP599644 MITC95” value is 6.2 µM. Moreover, in assay [3], the “IMP1 SM5741 MITC95” value came to 38 µM.
With `CCC[C@H](C(=O)O)[C@H](Cc1ccc(C(F)(F)F)cc1)c1nnn[nH]1` [Example 153, (S)-2-((S)-1-(1H-tetrazol-5-yl)-2-(4-(trifluoromethyl)phenyl)ethyl)pentanoic acid], the pIC50 at IMP-1 was 6.29; at NDM-1, 7.24; on VIM-1, 8.68. For the same compound, in assay [1], the “NDM1 EC30016 MITC95” value worked out at 9.4 µM. Moreover, the “VIM1 KP599644 MITC95” value in assay [2] came to 25 µM. The “IMP1 SM5741 MITC95” value in assay [3] came out at 25 µM.
Consider `CCC[C@H](C(=O)O)[C@H](Cc1ccccn1)c1nn[nH]n1` [Example 154, (S)-2-((S)-2-(pyridin-2-yl)-1-(1H-tetrazol-5-yl)ethyl)pentanoic acid], for which the pIC50 is 4.89 at IMP-1, 6.37 on NDM-1 and 6.85 at VIM-1. For the same compound, in assay [1], the “NDM1 EC30016 MITC95” value is 0.78 µM. Also, the “VIM1 KP599644 MITC95” value in assay [2] worked out at 25 µM. Moreover, in assay [3], the “IMP1 SM5741 MITC95” value worked out at 100 µM.

The values are drawn from US9839642B2, “Beta-tetrazolyl-propionic acids as metallo-beta-lactamase inhibitors” (priority 2014, dated 2017).
